Measured values from patent US20080234288A1, “Hcv Inhibiting Sulfonamides” (priority 2003, published 2008).

Test system: HCV replicon (NS3-NS5B regions of HCV type 1b) in Huh-7 luc/neo cells
Experiment: HCV replicon assay, stable replicon cell reporter assay (Huh-Luc, luciferase)
Type: cell-based
Settings: incubation of three days, luciferase activity
Excerpt: The compounds of the present invention were examined for activity in the inhibition of HCV RNA replication in a cellular assay. […] The cellular assay was based on a bicistronic expression construct, as described by Lohmann et al. (1999) Science vol. 285 pp. 110-113 with modifications described by Krieger et al. (2001) Journal of Virology 75: 4614-4624, in a multi-target screening strategy. In essence, the method is as follows.
The assay utilized the stably transfected cell line Huh-7 luc/neo (hereafter referred to as Huh-Luc; kindly provided by Dr Ralf Bartenschlager, Reblikon GmBh, Germany). This cell line harbors an RNA encoding a bicistronic expression construct comprising the wild type NS3-NS5B regions of HCV type 1b translated from an Internal Ribosome Entry Site (IRES) from encephalomyocarditis virus (EMCV), preceded by a reporter portion (FfL-luciferase), and a selectable marker portion (neo^R, neomycine phosphotransferase). The construct was bordered by 5′ and 3′ NTRs (non-translated regions) from HCV type 1b. Continued culture of the replicon cells in the presence of G418 (neo^R) is dependent on the replication of the HCV RNA. The stably transfected replicon cells that express HCV RNA, which replicates autonomously and to high levels, encoding inter alia luciferase, were used for screening the antiviral compounds.
The replicon cells were plated in 384 well plates in the presence of the test and control compounds which were added in various concentrations. Following an incubation of three days, HCV replication was measured by assaying luciferase activity (using standard luciferase assay substrates and reagents and a Perkin Elmer ViewLux™ ultraHTS microplate imager). Replicon cells in the control cultures have high luciferase expression in the absence of any inhibitor. The inhibitory activity of the compound on luciferase activity was monitored on the Huh-Luc cells, enabling a dose-response curve for each test compound. EC50 values were then calculated, which value represents the amount of the compound required to decrease by 50% the level of detected luciferase activity, or more specifically, the ability of the genetically linked HCV replicon RNA to replicate (Table 1).

Compound: CC(C)CN(CC(O)C(Cc1ccccc1)NC(=O)OCc1cncs1)S(=O)(=O)c1ccc2nc(N(C)C(=O)c3ccnc(Cl)c3)oc2c1 (stereo not drawn) [Compound 39, [1-Benzyl-3-({2-[(2-chloro-pyridine-4-carbonyl)-methyl-amino]-benzooxazole-6-sulfonyl}-isobutyl-amino)-2-hydroxy-propyl]-carbamic acid thiazol-5-ylmethyl ester]
- EC50 (Hepatitis C virus, Huh-7, 72 h): 10 to 32 µM

Compound: CC(C)CN(CC(O)C(Cc1ccccc1)NC(=O)OCc1cncs1)S(=O)(=O)c1ccc2nc(N(C)C(=O)C3CCC(=O)N3)oc2c1 (stereo not drawn) [Compound 8, [1-Benzyl-2-hydroxy-3-(isobutyl-{2-[methyl-(5-oxo-pyrrolidine-2-carbonyl)-amino]-benzooxazole-6-sulfonyl}-amino)-propyl]-carbamic acid thiazol-5-ylmethyl ester]
- EC50 (Hepatitis C virus, Huh-7, 72 h): 10 to 32 µM

Compound: CC(C)CN(CC(O)C(Cc1ccccc1)NC(=O)OCc1cncs1)S(=O)(=O)c1ccc2nc(NC(=O)C3CCC(=O)N3)oc2c1 (stereo not drawn) [Compound 24, [1-Benzyl-2-hydroxy-3-(isobutyl-{2-[(5-oxo-pyrrolidine-2-carbonyl)-amino]-benzooxazole-6-sulfonyl}-amino)-propyl]-carbamic acid thiazol-5-yl methyl ester]
- EC50: 2 to 10 µM

Compound: CC(C)CN(CC(O)C(Cc1ccccc1)NC(=O)OCc1cncs1)S(=O)(=O)c1ccc2nc(NC(=O)C3CCN(C)CC3)oc2c1 (stereo not drawn) [Compound 26, [1-Benzyl-2-hydroxy-3-(isobutyl-{2-[(1-methyl-piperidine-4-carbonyl)-amino]-benzooxazole-6-sulfonyl}-amino)-propyl]-carbamic acid thiazol-5-ylmethyl ester]
- EC50 (Hepatitis C virus, Huh-7, 72 h): 10 to 32 µM

Compound: CC(C)CN(CC(O)C(Cc1ccccc1)NC(=O)OCc1cncs1)S(=O)(=O)c1ccc2nc(N3CCCC3)oc2c1 (stereo not drawn) [Compound 5, {1-Benzyl-2-hydroxy-3-[isobutyl-(2-pyrrolidin-1-yl-benzo-oxazole-6-sulfonyl)-amino]-propyl}-carbamic acid thiazol-5-ylmethyl ester]
- EC50 (Hepatitis C virus, Huh-7, 72 h): 2 to 10 µM

Compound: CC(C)CN(CC(O)C(Cc1ccccc1)NC(=O)OCc1cncs1)S(=O)(=O)c1ccc2nc(NC(=O)C3CCC(=O)N3)oc2c1 (stereo not drawn) [Compound 23, [1-Benzyl-2-hydroxy-3-(isobutyl-{2-[(5-oxo-pyrrolidine-2-carbonyl)-amino]-benzooxazole-6-sulfonyl}-amino)-propyl]-carbamic acid thiazol-5-yl methyl ester]
- EC50: 10 to 32 µM
